According to patent US11364242B2, “Treatment agents for inhibiting HIV and cancer in HIV infected patients” (UNIVERSITY OF MARYLAND, BALTIMORE, priority 2015, dated 2022):
“Also recorded” adds a separate entry of the source. Read-outs that look alike come from different tables or passages of the source.

Legend:
HIV BaL = HIV BaL infection of NSG mice reconstituted with human PBLs
CXCR4 = experiment: Flow cytometry quantitation of surface receptor on PBLs; settings: IL-2, 7 days, three donors
HIV-1 BaL = experiment: Antiretroviral potency with and without INK128 in PBLs infected with HIV BaL; format: cell-based; settings: two donors
Procedure: (§1) PBLs were separated from buffy coats by density centrifugation over Ficoll-Hypaque (Sigma™), and activated by culture in the presence of 1 μg/mL anti-human CD3 antibody (clone x35, Fisher Scientific™) and 2 μg/mL anti-human CD28 antibody (Clone CD28.6, eBioscience™) for 3 days. Activated cells were infected by incubation with virus at a multiplicity of infection (MOI) of 0.001 for 2 hours. Infected cells were washed three times with PBS and cultured in 5% CO2 at 37° C., in RPMI/10% FBS supplemented with 100 units/mL IL-2 (Roche™) and antiviral drugs, in 96-well flat-bottom plates at a density of […] PBLs per 200 μL. Following 3 d of culture, half of the medium was replaced with fresh medium containing IL-2 and antiviral drugs. On day 7, viral replication was measured by p24 ELISA (Coulter) in culture supernatants and cell viability was measured by MTT assays.
Available ARTs target the HIV lifecycle steps of entry, reverse transcription, integration, and maturation. […] In addition, by targeting virus transcription, INK128 could have favorable interactions with inhibitors of reverse transcription (RTIs), integration (Hs), and protease (PIs). […] We conducted these assays in activated PBLs infected with R5 HIV BaL and treated with various dilutions of Maraviroc (CCR5 antagonist), Efavirenz (RTI), Raltegravir (II), and Indinavir (PI). INK128 was used at low concentrations (<EC50) to better detect changes in ART potency (Table 7).
Prism software. Data are from 2 experiments, each with a different donor.

[1] = Tolerability in huPBL-NSG mice (body weight, wasting, death)
X4 HIV (HXB2) = experiment: Real-time PCR of early reverse transcription products and integrated HIV DNA in infected PBLs; format: cell-based; settings: PBLs from two donors
Procedure: Activated PBLs were infected with R5 and X4 HIV strains using a MOI of 0.01. Infected cells were cultured in the presence of IL-2 and different concentrations of INK128. Cell aliquots were collected at 16 and 72 hours for analyses of early products of reverse transcription and of integration, respectively, by real time PCR. Detection of early products of reverse transcription was done with primers specific for the R/U5 region (60). For detection of integrated HIV DNA, a real-time nested Alu-HIV PCR assay was used as previously described (61, 62), with the modifications described herein.
DNA was isolated using Miniblood kit (Qiagen™). PCR amplification was performed using Quantitect SYBR Green™ PCR Kit (Qiagen™) in a LightCycler™ (Biorad™). Detection of early products of reverse transcription was done in reactions containing 100 ng of DNA and the primer pair 5′-[…]-3′ (SEQ ID NO. 1) and 5′-[…]-3′ (SEQ ID NO. 2) (R/U5 region) (60). […] Amplified products were analyzed by denaturation/renaturation to verify the specific Tm. The PCR cycle at which the signal entered the exponential range was used for quantification, and HIV copy numbers were corrected for those of α-tubulin. […] As a standard curve for relative quantification of integrated DNA, the Alu-gag was first run using serial dilutions of DNA isolated from HIV infected PBLs (diluted in HIV-negative DNA).

U1 cells = experiment: U1 cell proliferation (optimization experiments); format: cell-based; settings: concentrations higher than 10 nM
CD4 = experiment: Flow cytometry quantitation of surface receptor on PBLs; settings: IL-2, 7 days, three donors
[2] = test system: multidrug-resistant HIV molecular clone NL4329129-2; experiment: PBL infectivity assay, multidrug resistant clone; format: cell-based; settings: Human immunodeficiency virus 1, 168 h
Procedure: FIG. 2A-2B are bar graphs that illustrate how INK128 inhibits replication of multidrug resistant HIV molecular clone NL4329129-2. Activated PBLs were infected for 2 hours using a MOI of 0.001. Infected cells were cultured in IL-2 medium and the indicated concentrations of INK128. On day 7, virus production was measured by p24 ELISA in the culture supernatants (FIG. 2A), and cell viability was measured by MTT (FIG. 2B) according to an embodiment.
PBLs were isolated from buffy coats of HIV seronegative donors (New York Blood Center). The laboratory-adapted strains HIV BaL and HIV HXB2; primary isolates HIV 92BR020, 92UG031, 93BR029, and 93UG082; and multidrug resistant molecular clone NL4329129-2 were obtained from the NIH AIDS Repository. […] Proliferation of PBLs was measured by the MTT kit (Roche), following the manufacturer's directions. […]
PBLs were separated from buffy coats by density centrifugation over Ficoll-Hypaque (Sigma™), and activated by culture in the presence of 1 μg/mL anti-human CD3 antibody (clone x35, Fisher Scientific™) and 2 μg/mL anti-human CD28 antibody (Clone CD28.6, eBioscience™) for 3 days. […] On day 7, viral replication was measured by p24 ELISA (Coulter) in culture supernatants and cell viability was measured by MTT assays.
EC50 values were determined by variable slope nonlinear regression analysis. […]

[3] = test system: R5 and X4 HIV, laboratory-adapted and primary isolates; experiment: Infectivity assays in primary PBLs, summary over strains; format: cell-based
Procedure: as §1
The antiviral activity of INK128 was investigated in PBLs infected with CCR5 (R5)-tropic and CXCR4 (X4)-tropic HIV reference strains BaL and HXB2, respectively.

SMILES: CC(C)n1nc(-c2ccc3oc(N)nc3c2)c2c(N)ncnc21 [INK128, 5-(4-amino-1-propan-2-ylpyrazolo[3,4-d]pyrimidin-3-yl)-1,3-benzoxazol-2-amine]
- mean CD4/CD8 cell ratio (HIV BaL; day 14, 1 mg/kg/day i.p.): 0.11
- mean CD4/CD8 cell ratio (HIV BaL; day 14, 3 mg/kg/day i.p.): 0.18
- mean CD4/CD8 cell ratio (HIV BaL; day 14, 5 mg/kg/day i.p.): 0.76
- CXCR4 levels (percentage or density) (CXCR4): did not change
- effect on the potency of the other tested ARTs (Efavirenz, Raltegravir, Indinavir) (HIV-1 BaL): no negative effect
- enhancement of the antiviral potency of Maraviroc (HIV-1 BaL): five- to six fold
- effect on weight of the animals ([1]; 1-5 mg/kg once daily i.p. for 14 days): no adverse effects; also recorded: without obvious toxicity
- toxicity in pilot experiment ([1]; uninfected huPBL-NSG mice, 7 mg/kg daily i.p. for 2 wk): wasting and death
- R/U5 transcripts (X4 HIV (HXB2); 16 hours): did not decrease
- integrated provirus (X4 HIV (HXB2); 72 hours): did not decrease
- cell proliferation of U1 cells (U1 cells): inhibition of cell proliferation
- CD4 receptor levels (CD4): did not impact
- EC50 [2]: 10.9 nM
- EC50 ([3]; Human immunodeficiency virus 1, Lymphocyte, both R5 and X4 HIV in primary lymphocytes): < 50 nM
- EC50 ([3]; Human immunodeficiency virus 1, read-out: EC50s ranging, R5 primary isolates, three donors): 2.9 to 10.1 nM
- EC50 ([3]; Human immunodeficiency virus 1, read-out: EC50s ranging, X4 primary isolates, three donors): 17.5 to 36.7 nM
